Experimental data as given in paper PMC10258794, “To Fold or Not to Fold: Diastereomeric Optimization of an α-Helical Antimicrobial Peptide” (Journal of Medicinal Chemistry, 2023).
≈ marks a conversion by molar mass, not a printed value. Like-named read-outs stand apart in the source and are kept apart here.

Legend:
[1] = system: Burkolderia cenocepacia; assay: microbe, parasite or virus in culture; conditions: for MIC Burkolderia cenocepacia: MDR strain, MH broth pH 7.4, 16–20 h, 37 °C
Method: (§1) Antimicrobial activity was determined for all peptides on E. coli W3110, P. aeruginosa PAO1, A. baumannii ATCC19606, K. pneumoniae NCTC418, and methicillin-resistant S. aureus COL and for selected peptides on P. aeruginosa PA14 and the polymyxin B-resistant derivatives PA14 4.13, PA14 4.18, and PA14 2P4 as well as the clinical isolates ZEM-1A and ZEM9A, K. pneumoniae OXA-48, Enterobacter cloacae, Stenotrophomonas maltophilia, B. cenocepacia, and Staphylococus epidermis. To determine the MIC, the broth microdilution method was used.[75] A single bacterial colony was grown in LB medium overnight at 37 °C and 180 rpm shaking. The compounds were prepared as stock solutions of 2 mg/mL in sterilized milliQ deionized water, added to the first well of 96-well sterile, polypropylene round-bottom microtiter plates (TPP, untreated, Corning Incorporated, Kennebunk, USA), and diluted serially by 1/2. […] The bacterial inoculum was prepared by measuring the absorbance of the overnight culture, which was diluted to concentration of the bacteria was quantified by measuring absorbance at 600 nm and diluted to an OD600 of 0.022 in MH medium pH 7.4 (Sigma-Aldrich, Buchs, Switzerland). The sample solutions (150 μL) were mixed with 4 μL of diluted bacterial suspension with a final inoculation of about 5 × 10^5 CFU. For each test, two columns of the plate were kept for sterility control (MH medium only) and growth control (MH medium with bacterial inoculum, no compound). […] The plates were incubated at 37 °C for 16–20 h under static conditions. 15 μL of 3-(4,5-dimethylthiazol-2-yl)-2,5-diphenyltetrazolium bromide (MTT)[76] (1 mg/mL in sterilized milliQ deionized water) was added to each well, and the plates were incubated at room temperature until MTT staining was completed. The MIC was defined as the lowest concentration of the dendrimer that inhibits the visible growth of the tested bacteria (yellow) with the unaided eye.

[2] = system: Enterobacter cloacae; assay: microbe, parasite or virus in culture; conditions: pH 7.4
Method: as §1

[3] = system: P. aeruginosa PA14; assay: microbe, parasite or virus in culture; conditions: for MIC PA14: MH broth pH 7.4, 16–20 h, 37 °C; for MIC P. aeruginosa PA14: supplementary CSV
Method: as §1

[4] = system: P. aeruginosa ZEM-1A; assay: microbe, parasite or virus in culture; conditions: pH 7.4
Method: as §1

[5] = system: PA14 2P4 (pmrB); assay: microbe, parasite or virus in culture; conditions: supplementary CSV
Method: as §1

[6] = system: PA14 4.13 (phoQ); assay: microbe, parasite or virus in culture; conditions: supplementary CSV
Method: as §1

[7] = system: PA14 4.18 (pmrB); assay: microbe, parasite or virus in culture; conditions: supplementary CSV
Method: as §1

[8] = system: P. aeruginosa ZEM9A; assay: microbe, parasite or virus in culture; format: cell-based, Pseudomonas aeruginosa; conditions: pH 7.4
Method: as §1

[9] = system: K. pneumoniae Oxa-48; assay: MIC broth microdilution, K. pneumoniae Oxa-48; format: cell-based, Klebsiella pneumoniae; conditions: MDR strain; MH broth pH 7.4, 16–20 h, 37 °C
Method: as §1

[10] = system: Stenotrophomonas maltophilia; assay: microbe, parasite or virus in culture; format: cell-based; conditions: pH 7.4
Method: as §1

[11] = system: Staphylococcus epidermis; assay: MIC broth microdilution, Staphylococcus epidermis; format: cell-based; conditions: pH 7.4
Method: as §1

[12] = system: HEK293 cells; assay: Alamar blue cytotoxicity, HEK293; format: cell-based, human; conditions: 24 h, mean ± SD, n = 3, read-out: Toxicity on HEK293 cells
Method: (§2) The A549 human lung adenocarcinoma cells are derived from a patient and were kindly given to us by Dr. Georgia Konstatinidou (Pharmacology Institute, Bern University). HEK293T cells were obtained from ATCC (CRL-11268). A549 and HEK293 were cultured in an incubator at 37 °C with 5% CO2 in RPMI-1640 (Gibco) and DMEM (Gibco) containing 10% fetal bovine serum (Thermo Fisher), 100 I.U./mL penicillin, and 100 μg/mL streptomycin (Gibco).
(§3) The viability of the cells was assessed with an AlamarBlue assay (ThermoFisher). Cells were seeded into 96-well plates, 4000 cells/well (HEK293) and 8000 cells/well (A549), the day before the experiment. Cells were then treated with the increasing concentration of the compound and incubated for 24 h at 37 °C in the presence of 5% CO2. The next day, the medium was removed and replaced by a 10% AlamarBlue solution in full growth medium (DMEM or RPMI-1640). The cells were incubated for 3–5 h at 37 °C with 5% CO2 in a humidified atmosphere. The fluorescence was then measured on a Tecan Infinite M1000 Pro plate reader at λex 560 nm and λem 590 nm. The value was normalized according to the untreated cells.

[13] = system: A549 cells; assay: Alamar blue cytotoxicity, A549; format: cell-based, human; conditions: 24 h, mean ± SD, n = 3, read-out: Toxicity on A549 lung cancern cells
Method: as §2, §3

[14] = system: A. baumannii ATCC19606
Method: as §1

[15] = system: E. coli W3110; conditions: MH broth pH 7.4, 16–20 h, 37 °C
Method: as §1

[16] = system: K. pneumoniae NCTC418
Method: as §1

[17] = system: P. aeruginosa PAO1
Method: as §1

[18] = system: S. aureus COL MRSA; conditions: for MIC S. aureus COL MRSA: MH broth pH 7.4, 16–20 h, 37 °C; for MIC S. aureus COL: supplementary CSV, ranges of Table 1 given as one number
Method: as §1

[19] = system: S. aureus Newman; conditions: for MIC S. aureus Newman: MH broth pH 7.4, 16–20 h, 37 °C; for MIC S. aureus Newmann: supplementary CSV
[20] = MH broth pH 7.4, 16–20 h, 37 °C
[21] = supplementary CSV, ranges of Table 1 given as one number

Compound | MIC Burkolderia cenocepacia [1] | MIC Enterobacter cloacae [2] | MIC PA14 [3] | MIC P. aeruginosa PA14 [3] | MIC ZEM-1A [4] | MIC P. aeruginosaPA14 2P4 [5] | MIC P. aeruginosa PA14 4.13 [6] | MIC P. aeruginosa PA14 4.18 [7] | MIC ZEM9A [8] | MIC K. pneumoniae Oxa-48 [9] | MIC Stenotrophomonas maltophilia [10] | MIC Staphylococcus epidermis [11] | MIC A. baumannii ATCC19606 [14, 20] | MIC A. baumannii ATCC19606 [14, 21] | MIC E. coli W3110 [15] | MIC K. pneumoniae NCTC418 [16, 20] | MIC K. pneumoniae NCTC418 [16, 21] | MIC P. aeruginosa PAO1 [17, 20] | MIC P. aeruginosa PAO1 [17, 21] | MIC S. aureus COL MRSA [18] | further results
CC(C)C[C@H](NC(=O)[C@H](CC(C)C)NC(=O)[C@H](CC(C)C)NC(=O)[C@H](CCCCN)NC(=O)[C@H](CC(C)C)NC(=O)[C@H](CC(C)C)NC(=O)[C@H](CCCCN)NC(=O)[C@H](CC(C)C)NC(=O)[C@H](CC(C)C)NC(=O)[C@@H](CCCCN)NC(=O)[C@@H](N)CCCCN)C(N)=O [HP1] | >64 µg/mL | 2 µg/mL (≈ 1.51 µM) | 2 µg/mL (≈ 1.51 µM) | 2 µg/mL (≈ 1.51 µM) | 2 µg/mL (≈ 1.51 µM) | 64 µg/mL (≈ 48.4 µM) | 4 µg/mL (≈ 3.03 µM) | 32 µg/mL (≈ 24.2 µM) | 4 µg/mL (≈ 3.03 µM) | 8 µg/mL (≈ 6.05 µM) | 4 µg/mL (≈ 3.03 µM) | 2 µg/mL (≈ 1.51 µM) | 4 µg/mL (≈ 3.03 µM) | 4 µg/mL (≈ 3.03 µM) | 2 µg/mL (≈ 1.51 µM) | 4 to 8 µg/mL | 6 µg/mL (≈ 4.54 µM) | 4 µg/mL (≈ 3.03 µM) | 4 µg/mL (≈ 3.03 µM) | 2 µg/mL (≈ 1.51 µM) | IC50 [12]: 42.9 ± 2.6 µM; IC50 [13]: 2.7 ± 2.4 µM; MIC S. aureus COL [18]: 2 µg/mL (≈ 1.51 µM); MIC S. aureus Newman [19]: 2 µg/mL (≈ 1.51 µM); MIC S. aureus Newmann [19]: 2 µg/mL (≈ 1.51 µM)
CC(C)C[C@H](NC(=O)[C@H](CC(C)C)NC(=O)[C@H](CC(C)C)NC(=O)[C@H](CCCCN)NC(=O)[C@H](CC(C)C)NC(=O)[C@H](CC(C)C)NC(=O)[C@@H](CCCCN)NC(=O)[C@H](CC(C)C)NC(=O)[C@H](CC(C)C)NC(=O)[C@@H](CCCCN)NC(=O)[C@H](N)CCCCN)C(N)=O [HP10, kkLLkLLKLLL] | >64 µg/mL | 2 µg/mL (≈ 1.51 µM) | 2 µg/mL (≈ 1.51 µM) | 2 µg/mL (≈ 1.51 µM) | 2 µg/mL (≈ 1.51 µM) | 32 µg/mL (≈ 24.2 µM) | 4 µg/mL (≈ 3.03 µM) | 16 µg/mL (≈ 12.1 µM) | 4 µg/mL (≈ 3.03 µM) | 2 µg/mL (≈ 1.51 µM) | 2 µg/mL (≈ 1.51 µM) | 2 µg/mL (≈ 1.51 µM) | 2 µg/mL (≈ 1.51 µM) | 2 µg/mL (≈ 1.51 µM) | 2 µg/mL (≈ 1.51 µM) | 4 µg/mL (≈ 3.03 µM) | 4 µg/mL (≈ 3.03 µM) | 4 µg/mL (≈ 3.03 µM) | 4 µg/mL (≈ 3.03 µM) | 2 µg/mL (≈ 1.51 µM) | MIC B. cenocepacia ([1]; supplementary CSV): > 64 µg/mL; IC50 [12]: 75.1 ± 1.7 µM; IC50 [13]: 15 ± 0.7 µM; MIC S. aureus COL [18]: 2 µg/mL (≈ 1.51 µM); MIC S. aureus Newman [19]: 2 µg/mL (≈ 1.51 µM); MIC S. aureus Newmann [19]: 2 µg/mL (≈ 1.51 µM)
CC(C)C[C@H](NC(=O)[C@H](CC(C)C)NC(=O)[C@H](CC(C)C)NC(=O)[C@H](CCCCN)NC(=O)[C@H](CC(C)C)NC(=O)[C@H](CC(C)C)NC(=O)[C@H](CCCCN)NC(=O)[C@H](CC(C)C)NC(=O)[C@H](CC(C)C)NC(=O)[C@@H](CCCCN)NC(=O)[C@H](N)CCCCN)C(N)=O [HP2] | >64 µg/mL | 2 µg/mL (≈ 1.51 µM) | 2 µg/mL (≈ 1.51 µM) | 2 µg/mL (≈ 1.51 µM) | 2 µg/mL (≈ 1.51 µM) | 64 µg/mL (≈ 48.4 µM) | 4 µg/mL (≈ 3.03 µM) | 32 µg/mL (≈ 24.2 µM) | 4 µg/mL (≈ 3.03 µM) | 2 µg/mL (≈ 1.51 µM) | 2 µg/mL (≈ 1.51 µM) | 2 µg/mL (≈ 1.51 µM) | 4 µg/mL (≈ 3.03 µM) | 4 µg/mL (≈ 3.03 µM) | 4 µg/mL (≈ 3.03 µM) | 2 to 4 µg/mL | 3 µg/mL (≈ 2.27 µM) | 4 µg/mL (≈ 3.03 µM) | 4 µg/mL (≈ 3.03 µM) | 4 µg/mL (≈ 3.03 µM) | MIC S. aureus COL [18]: 4 µg/mL (≈ 3.03 µM); MIC S. aureus Newman [19]: 2 µg/mL (≈ 1.51 µM); MIC S. aureus Newmann [19]: 2 µg/mL (≈ 1.51 µM)
